Earlier results in patent US20170217996A1, “Large-scale diastereoselective syntheses of cycloheptadienylsulfones and stereotetrads” (Purdue Research Foundation, priority 2014, published 2017).

Columns and labels:
tubulin = settings: in association with actin
P388 leukemia = settings: mice
B16 melanoma = settings: mice
actin = settings: in vitro
Lewis lung = settings: mice
Colon 26 carcinoma = settings: mice
Ehrlich carcinoma = settings: mice

Structure (SMILES): COCC(C(=O)O[C@@H]1C/C=C/C=C/C(=O)O[C@H]([C@@H](C)[C@@H](O)[C@@H](C)CC[C@@H](OC(=O)C(C)N(C)C)[C@H](C)[C@H](OC(C)=O)[C@H](C)/C=C/N(C)C=O)C/C=C/[C@H](OC)C[C@H](C)C/C=C(\C)[C@@H](OC)CC[C@@H](C)[C@@H](O)[C@@H]1C)N(C)C (stereo partly drawn) [ApA, Aplyronine A]
- inhibition of tubulin polymerization (tubulin): inhibits tubulin polymerization
- increase of lifespan (P388 leukemia): 545%
- increase of lifespan (B16 melanoma): 201%
- inhibition of actin polymerization (actin): inhibit actin polymerization in vitro to the same extent
- increase of lifespan (Lewis lung): 566%
- complex with actin and tubulin (actin and tubulin): 1:1:1 heterotrimeric complex
- concentration that inhibits spindle formation and mitosis (HeLa S3 cells): 100 pM
- increase of lifespan (Colon 26 carcinoma): 255%
- increase of lifespan (Ehrlich carcinoma): 398%
